# Test results taken from PMC12168924, “Construction of the reduced nicotinamide adenine dinucleotide salvage pathway in artificial cells and its application in amino acid synthesis” (Chemical Science, 2025).
# T1: nicotinamide phosphoribosyltransferase (NAMPT) (Chitinophaga pinensis, UniProt A0A979FZM9)
# T1 construct: gene Cpin_0607
# T1 sequence (A0A979FZM9 1-471): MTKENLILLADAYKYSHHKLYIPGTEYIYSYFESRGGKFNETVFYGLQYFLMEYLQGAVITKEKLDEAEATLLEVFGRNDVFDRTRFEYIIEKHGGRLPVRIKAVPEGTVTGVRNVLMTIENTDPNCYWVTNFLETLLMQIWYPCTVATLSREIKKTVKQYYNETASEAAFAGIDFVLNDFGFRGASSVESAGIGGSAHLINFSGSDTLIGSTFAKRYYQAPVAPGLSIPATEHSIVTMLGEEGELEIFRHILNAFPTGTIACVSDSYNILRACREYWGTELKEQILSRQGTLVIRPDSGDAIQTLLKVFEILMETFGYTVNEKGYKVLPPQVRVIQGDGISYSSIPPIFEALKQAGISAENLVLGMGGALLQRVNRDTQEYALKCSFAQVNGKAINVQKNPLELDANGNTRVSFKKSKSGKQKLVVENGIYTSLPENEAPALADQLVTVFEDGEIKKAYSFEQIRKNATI
# B1: nicotinamide mononucleotide adenylyltransferase (NMNAT) (Acinetobacter baylyi ADP1) (protein)
# chain: MYKFDYLVFIGRFQPFHFAHLQTIQIALQQSREVIIALGSAQPERNIKNPFLAEERQKMILANFSAEDQARIHFVNIIDVYNDQKWVEQVKQLVNAIIESRSHVGLIGHFKDESSYYLKLFPEWTMVELESLKESMSATPMREAYYEGKIIESAFPEGTIQFLKTFQDSEIYKQLQQKYRAQDSSNLI
# Assays:
# [1] = molecular target: T2, ribose-phosphate pyrophosphokinase (RPPK) (Mycobacterium tuberculosis, UniProt P9WKE3); assay: HPLC of AMP formation, inhibition at rising ADP; assay type: biochemical; conditions: inhibitor; assay per b47: R-5-P, ATP, MgCl2, 40 mM KH2PO4, Tris-HCl pH 8.0, 37 °C
# T2 construct: gene prs
# T2 sequence (P9WKE3 whole entry): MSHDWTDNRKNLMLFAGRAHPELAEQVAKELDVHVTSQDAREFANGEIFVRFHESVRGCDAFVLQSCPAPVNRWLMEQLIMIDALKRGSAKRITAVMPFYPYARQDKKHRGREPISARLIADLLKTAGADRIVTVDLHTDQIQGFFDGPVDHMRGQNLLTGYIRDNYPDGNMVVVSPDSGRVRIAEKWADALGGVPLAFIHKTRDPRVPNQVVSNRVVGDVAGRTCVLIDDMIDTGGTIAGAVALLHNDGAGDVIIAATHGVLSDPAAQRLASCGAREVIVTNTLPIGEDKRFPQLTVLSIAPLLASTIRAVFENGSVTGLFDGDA
# [2] = molecular target: T1, nicotinamide phosphoribosyltransferase (NAMPT); assay: HPLC of NMN formation; assay type: biochemical; conditions: PRPP made in situ by RPPK, 5 mM MgCl2, pH 8.0, 37 °C
# HPLC of NMN depletion = substrate: NC(=O)c1ccc[n+]([C@@H]2O[C@H](COP(=O)(O)O)[C@@H](O)[C@H]2O)c1; assay: HPLC of NMN depletion; assay type: biochemical, Acinetobacter baylyi; conditions: assay per b51: ATP, MgCl2, 40 mM KH2PO4, 50 mM Tris-HCl pH 8.0, 37 °C, kinetic details in supplement
molecule,measurement,setting,value
Nc1ncnc2c1ncn2[C@@H]1O[C@H](COP(=O)(O)OP(=O)(O)O)[C@@H](O)[C@H]1O [ADP],"HPLC of AMP formation, inhibition at rising ADP",[1],ADP was found to significantly inhibit RPPK activity
O=P(O)(O)OC[C@H]1O[C@H](OP(=O)(O)OP(=O)(O)O)[C@H](O)[C@@H]1O [PRPP],HPLC of NMN formation,[2],"PRPP, an enzyme cascade was employed to synthesize PRPP for assessing NAMPT activity"
B1,Km,HPLC of NMN depletion,396.6 ± 59.6 µM
